{"source": "patent US20230123334A1", "about": "“AMINO LIPID COMPOUND, PREPARATION METHOD THEREFOR, AND APPLICATION THEREOF” (SHENZHEN SHENXIN BIOTECHNOLOGY CO., LTD., priority 2020, published 2023)", "key": {"[1]": {"tested_on": "HEK293 cells", "experiment": "Preliminary screening as DNA vectors, GFP transfection of HEK293 cells", "format": "cell-based", "details": "HEK293 cells; lipid/DOPE liposome with 75 ng plasmid DNA (psin-EGFP-IRES-Puro); number of cells expressing GFP divided by total number of nuclei (Hoechst)", "in_short": "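Lipid + DOPE liposomes (NaOAc, pH 5.6) complexed w/ 75 ng psin-EGFP-IRES-Puro, 30 min RT; added to 3-5×10^4 HEK293/well, 37° C. Hoechst 0.2 μg/mL at 20-24 h, imaged after further 20-24 h. Efficiency = GFP+ cells / total nuclei.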"}, "[2]": {"tested_on": "HEK293 cells", "experiment": "Preliminary screening as mRNA vectors, EGFP mRNA transfection of HEK293 cells", "format": "cell-based", "details": "HEK293 cells, 96-well plates, EGFP mRNA 50 ng per well; percentage of GFP fluorescent cells relative to total number of cells (Hoechst)", "in_short": "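Each well of HEK293 cells received 50 ng of EGFP mRNA. Efficiency was expressed as percent GFP-expressing cells over Hoechst-defined total cell number.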"}}, "data": [{"smiles": "CCCCCCCCCCCCCCCSc1nc(NCCN(C)C)nc(SCCCCCCCCCCC)n1", "note": "[Compound S11S15D1]", "values": [{"measurement": "Absolute DNA transfection efficiency in HEK293 cells", "setting": "[1]", "value": 0.9, "unit": "%"}, {"measurement": "Absolute mRNA transfection efficiency in HEK293 cells", "setting": "[2]", "value": 0.0, "unit": "%"}]}, {"smiles": "CCCCCCCCCCCCCNc1nc(NCCCCCC)nc(NCCN(CC)CC)n1", "note": "[Compound N6N13D7]", "values": [{"measurement": "Absolute DNA transfection efficiency in HEK293 cells", "setting": "[1]", "value": 0.1, "unit": "%"}, {"measurement": "Absolute mRNA transfection efficiency in HEK293 cells", "setting": "[2]", "value": 0.9, "unit": "%"}]}, {"smiles": "CCCCCCCCCCCCN(CCCCCCCCCCCC)c1nc(NCCCCCCCC)nc(NCCCN(C)C)n1", "note": "[N8^2N12D6]", "values": [{"measurement": "Absolute DNA transfection efficiency in HEK293 cells", "setting": "[1]", "value": 0.0, "unit": "%"}, {"measurement": "Absolute mRNA transfection efficiency in HEK293 cells", "setting": "[2]", "value": 0.9, "unit": "%"}]}, {"smiles": "CCCCCCCCCCCCCCCNc1nc(NCCCCCC)nc(NCCCN2CCN(C)CC2)n1", "note": "[Compound N6N15D9]", "values": [{"measurement": "Absolute DNA transfection efficiency in HEK293 cells", "setting": "[1]", "value": 0.1, "unit": "%"}, {"measurement": "Absolute mRNA transfection efficiency in HEK293 cells", "setting": "[2]", "value": 0.0, "unit": "%"}]}, {"smiles": "CCCCCCCCCCCCCCCNc1nc(NCCCCCCCCCCCCCCC)nc(NCCCN(C)C)n1", "note": "[Compound N15N15D6]", "values": [{"measurement": "Absolute DNA transfection efficiency in HEK293 cells", "setting": "[1]", "value": 1.5, "unit": "%"}, {"measurement": "Absolute mRNA transfection efficiency in HEK293 cells", "setting": "[2]", "value": 0.0, "unit": "%"}]}, {"smiles": "CCCCCCCCCCSc1nc(NCCCN2CCN(C)CC2)nc(SCCCCCCCCCC)n1", "note": "[Compound S10S10D9]", "values": [{"measurement": "Absolute DNA transfection efficiency in HEK293 cells", "setting": "[1]", "value": 13.4, "unit": "%"}, {"measurement": "Absolute mRNA transfection efficiency in HEK293 cells", "setting": "[2]", "value": 51.3, "unit": "%"}]}, {"smiles": "CCCCCCCCCCCCCCCCNc1nc(NCCCCCCCCCCCCCCC)nc(NCCN2CCCCC2)n1", "note": "[Compound N15N16D4]", "values": [{"measurement": "Absolute DNA transfection efficiency in HEK293 cells", "setting": "[1]", "value": 1.9, "unit": "%"}, {"measurement": "Absolute mRNA transfection efficiency in HEK293 cells", "setting": "[2]", "value": 1.6, "unit": "%"}]}, {"smiles": "CCCCCCCCCCCCCCCCCCNc1nc(NCCCCCCC)nc(NCCCN(C)C)n1", "note": "[Compound N7N18D6]", "values": [{"measurement": "Absolute DNA transfection efficiency in HEK293 cells", "setting": "[1]", "value": 0.7, "unit": "%"}, {"measurement": "Absolute mRNA transfection efficiency in HEK293 cells", "setting": "[2]", "value": 1.1, "unit": "%"}]}, {"smiles": "CCCCCCCCCSc1nc(NCCN(CC)CC)nc(SCCCCCCCCC)n1", "note": "[Compound S9S9D7]", "values": [{"measurement": "Absolute DNA transfection efficiency in HEK293 cells", "setting": "[1]", "value": 32.6, "unit": "%"}, {"measurement": "Absolute mRNA transfection efficiency in HEK293 cells", "setting": "[2]", "value": 3.6, "unit": "%"}]}, {"smiles": "CCCCCCCCCCCCCCCCCCSc1nc(NCCN2CCCCC2)nc(SCCCCCCCCCCCCCCCCCC)n1", "note": "[Compound S18S18D4]", "values": [{"measurement": "Absolute DNA transfection efficiency in HEK293 cells", "setting": "[1]", "value": 0.1, "unit": "%"}, {"measurement": "Absolute mRNA transfection efficiency in HEK293 cells", "setting": "[2]", "value": 0.1, "unit": "%"}]}, {"smiles": "CCCCCCCCCCCCCCCCNc1nc(NCCCCCCCCC)nc(NCCN(CC)CC)n1", "note": "[Compound N9N16D7]", "values": [{"measurement": "Absolute DNA transfection efficiency in HEK293 cells", "setting": "[1]", "value": 0.0, "unit": "%"}, {"measurement": "Absolute mRNA transfection efficiency in HEK293 cells", "setting": "[2]", "value": 1.1, "unit": "%"}]}, {"smiles": "CCCCCCCCCCCCCCCCCCNc1nc(NCCN2CCN(C)CC2)nc(N(CCCCCCCCCCCC)CCCCCCCCCCCC)n1", "note": "[N18^2N12D5]", "values": [{"measurement": "Absolute DNA transfection efficiency in HEK293 cells", "setting": "[1]", "value": 0.7, "unit": "%"}, {"measurement": "Absolute mRNA transfection efficiency in HEK293 cells", "setting": "[2]", "value": 0.7, "unit": "%"}]}, {"smiles": "CCCCCCCCNc1nc(NCCCCCCC)nc(NCCCN2CCOCC2)n1", "note": "[Compound N7N8D8]", "values": [{"measurement": "Absolute DNA transfection efficiency in HEK293 cells", "setting": "[1]", "value": 0.0, "unit": "%"}, {"measurement": "Absolute mRNA transfection efficiency in HEK293 cells", "setting": "[2]", "value": 0.0, "unit": "%"}]}, {"smiles": "CCCCCCCCCCCCCCCNc1nc(NCCCCCCCCCCCC)nc(NCCN(C)C)n1", "note": "[Compound N12N15D1]", "values": [{"measurement": "Absolute DNA transfection efficiency in HEK293 cells", "setting": "[1]", "value": 1.5, "unit": "%"}, {"measurement": "Absolute mRNA transfection efficiency in HEK293 cells", "setting": "[2]", "value": 1.0, "unit": "%"}]}, {"smiles": "CCCCCCCCCCCNc1nc(NCCCCCCC)nc(NCCN2CCCC2)n1", "note": "[Compound N7N11D3]", "values": [{"measurement": "Absolute DNA transfection efficiency in HEK293 cells", "setting": "[1]", "value": 1.0, "unit": "%"}, {"measurement": "Absolute mRNA transfection efficiency in HEK293 cells", "setting": "[2]", "value": 1.3, "unit": "%"}]}, {"smiles": "CCCCCCCCCCCSc1nc(NCCN(CC)CC)nc(SCCCCCCCCCCC)n1", "note": "[Compound S11S11D7]", "values": [{"measurement": "Absolute DNA transfection efficiency in HEK293 cells", "setting": "[1]", "value": 0.0, "unit": "%"}, {"measurement": "Absolute mRNA transfection efficiency in HEK293 cells", "setting": "[2]", "value": 0.0, "unit": "%"}]}, {"smiles": "CCCCCCCCCCCCCCSc1nc(NCCN(C)C)nc(SCCCCCCCCCCCCCC)n1", "note": "[Compound S14S14D1]", "values": [{"measurement": "Absolute DNA transfection efficiency in HEK293 cells", "setting": "[1]", "value": 0.1, "unit": "%"}, {"measurement": "Absolute mRNA transfection efficiency in HEK293 cells", "setting": "[2]", "value": 0.0, "unit": "%"}]}, {"smiles": "CCCCCCCCCCCCCCCNc1nc(NCCCCCCCCCCC)nc(NCCCN2CCOCC2)n1", "note": "[Compound N11N15D8]", "values": [{"measurement": "Absolute DNA transfection efficiency in HEK293 cells", "setting": "[1]", "value": 1.1, "unit": "%"}, {"measurement": "Absolute mRNA transfection efficiency in HEK293 cells", "setting": "[2]", "value": 0.5, "unit": "%"}]}, {"smiles": "CCCCCCCCCCCCCCCCCCSc1nc(NCCN2CCCCC2)nc(SCCCCCCCCCCCCCC)n1", "note": "[Compound S14S18D4]", "values": [{"measurement": "Absolute DNA transfection efficiency in HEK293 cells", "setting": "[1]", "value": 2.5, "unit": "%"}, {"measurement": "Absolute mRNA transfection efficiency in HEK293 cells", "setting": "[2]", "value": 0.8, "unit": "%"}]}, {"smiles": "CCCCCCCCCCCCCNc1nc(NCCCCCCCC)nc(NCCN2CCN(C)CC2)n1", "note": "[Compound N8N13D5]", "values": [{"measurement": "Absolute DNA transfection efficiency in HEK293 cells", "setting": "[1]", "value": 0.0, "unit": "%"}, {"measurement": "Absolute mRNA transfection efficiency in HEK293 cells", "setting": "[2]", "value": 0.0, "unit": "%"}]}, {"smiles": "CCCCCCCCCCCSc1nc(NCCN2CCN(C)CC2)nc(SCCCCCCCCCC)n1", "note": "[Compound S10S11D5]", "values": [{"measurement": "Absolute DNA transfection efficiency in HEK293 cells", "setting": "[1]", "value": 8.4, "unit": "%"}, {"measurement": "Absolute mRNA transfection efficiency in HEK293 cells", "setting": "[2]", "value": 61.1, "unit": "%"}]}, {"smiles": "CCCCCCCCCCCCCCCNc1nc(NCCCCCCCCC)nc(NCCN2CCCC2)n1", "note": "[Compound N9N15D3]", "values": [{"measurement": "Absolute DNA transfection efficiency in HEK293 cells", "setting": "[1]", "value": 0.5, "unit": "%"}, {"measurement": "Absolute mRNA transfection efficiency in HEK293 cells", "setting": "[2]", "value": 4.7, "unit": "%"}]}, {"smiles": "CCCCCCCCCCCCCCSc1nc(NCCN2CCOCC2)nc(SCCCCCCCCCC)n1", "note": "[Compound S10S14D2]", "values": [{"measurement": "Absolute DNA transfection efficiency in HEK293 cells", "setting": "[1]", "value": 1.5, "unit": "%"}, {"measurement": "Absolute mRNA transfection efficiency in HEK293 cells", "setting": "[2]", "value": 0.2, "unit": "%"}]}, {"smiles": "CCCCCCCCCCCCCCCNc1nc(NCCCCCCCCC)nc(NCCN2CCCCC2)n1", "note": "[Compound N9N15D4]", "values": [{"measurement": "Absolute DNA transfection efficiency in HEK293 cells", "setting": "[1]", "value": 0.0, "unit": "%"}, {"measurement": "Absolute mRNA transfection efficiency in HEK293 cells", "setting": "[2]", "value": 0.6, "unit": "%"}]}]}
